The source made the active and inactive calls. No cut-off for these calls is given here.
Columns and labels:
[1] = system: Huh-7; assay: Antiproliferative activity against human Huh-7 cells incubated for 5 days by XTT assay; format: functional, cell-based; conditions: time 5.0 day
[2] = system: COLO 205; assay: Antiproliferative activity against human COLO 205 cells; format: functional, cell-based
[3] = system: SK-HEP1; assay: Antiproliferative activity against human SK-HEP1 cells incubated for 5 days by XTT assay; format: functional, cell-based; conditions: time 5.0 day
[4] = system: HLF; assay: Antiproliferative activity against human HLF cells incubated for 5 days by XTT assay; format: functional, cell-based; conditions: time 5.0 day
[5] = biological target: T1, Dual specificity protein kinase TTK (Homo sapiens, UniProt P33981); assay: Inhibition of recombinant human full length N-terminal GST-fused MPS1 (1 to 857 residues) using histone H3 as substrate measured after 4 hrs in presence of DTT by TR-FRET assay
T1 sequence (P33981 whole entry): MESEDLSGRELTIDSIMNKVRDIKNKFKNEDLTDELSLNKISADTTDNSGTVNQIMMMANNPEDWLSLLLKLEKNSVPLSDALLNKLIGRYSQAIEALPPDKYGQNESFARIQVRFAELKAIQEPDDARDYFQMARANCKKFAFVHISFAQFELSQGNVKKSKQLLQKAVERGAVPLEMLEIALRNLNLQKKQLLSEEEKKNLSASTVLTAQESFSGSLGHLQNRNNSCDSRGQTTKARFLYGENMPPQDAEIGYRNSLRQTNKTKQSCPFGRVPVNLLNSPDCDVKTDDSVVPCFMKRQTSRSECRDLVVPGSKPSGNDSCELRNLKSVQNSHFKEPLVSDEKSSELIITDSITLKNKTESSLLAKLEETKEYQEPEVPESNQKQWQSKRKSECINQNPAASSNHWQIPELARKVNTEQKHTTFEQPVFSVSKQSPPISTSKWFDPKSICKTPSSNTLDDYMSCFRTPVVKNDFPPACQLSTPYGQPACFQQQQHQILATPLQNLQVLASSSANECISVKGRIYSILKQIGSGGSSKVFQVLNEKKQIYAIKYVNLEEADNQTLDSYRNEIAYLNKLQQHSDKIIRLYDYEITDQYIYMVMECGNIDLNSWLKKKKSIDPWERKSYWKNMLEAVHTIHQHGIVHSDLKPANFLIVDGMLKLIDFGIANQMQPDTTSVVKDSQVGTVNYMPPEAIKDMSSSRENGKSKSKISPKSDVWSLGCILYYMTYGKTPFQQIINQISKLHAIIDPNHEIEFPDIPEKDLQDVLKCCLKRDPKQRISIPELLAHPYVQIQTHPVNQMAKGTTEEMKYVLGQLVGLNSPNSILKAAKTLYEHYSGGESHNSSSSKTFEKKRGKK

[6] = system: HCC 2998; assay: Antiproliferative activity against human HCC 2998 cells; format: functional, cell-based
[7] = system: SNU-387; assay: Induction of apoptosis in human SNU-387 cells assessed as increase in p21 expression level at 200 nM measured upto 5 days by Western blot analysis; format: functional, cell-based; conditions: time day <=5
[8] = system: HCT-15; assay: Antiproliferative activity against human HCT-15 cells; format: functional, cell-based
[9] = system: HCT-116; assay: Induction of apoptosis in human HCT-116 cells assessed as upregulation of p21 expression measured after 3 days by Western blot analysis; format: functional, cell-based; conditions: time 3.0 day
[10] = system: KM12; assay: Antiproliferative activity against human KM12 cells; format: functional, cell-based
[11] = system: HLE; assay: Antiproliferative activity against human HLE cells incubated for 5 days by XTT assay; format: functional, cell-based; conditions: time 5.0 day
[12] = system: HCT-116; assay: Cell cycle arrest in human HCT-116 cells assessed as accumulation in G2/M phase incubated for 3 days; format: functional, cell-based; conditions: time 3.0 day
[13] = system: Huh-7; assay: Induction of apoptosis in human Huh-7 cells assessed as increase in phospho-gammaH2A.X expression level at 200 nM measured upto 5 days by Western blot analysis; format: functional, cell-based; conditions: time day <=5
[14] = Stability of compound in glutathione at pH 7.4 assessed as half life by HPLC analysis; format: physicochemical; conditions: glutathione solution, time 5 min
[15] = system: Huh-7; assay: Induction of cell senescence in human Huh-7 cells at 200 uM measured up to 5 days by SA-beta-gal-staining based assay; format: functional; conditions: time day <=5
[16] = biological target: Ribosomal protein S6 kinase beta-2 (Homo sapiens, UniProt Q9UBS0); assay: Inhibition of human recombinant P70S6Kbeta expressed in Sf9 insect cells using [KKRNRTLTK] as substrate in presence of [33P]-ATP by radiometric hotspot kinetic assay
Ribosomal protein S6 kinase beta-2, sequence (Q9UBS0 whole entry): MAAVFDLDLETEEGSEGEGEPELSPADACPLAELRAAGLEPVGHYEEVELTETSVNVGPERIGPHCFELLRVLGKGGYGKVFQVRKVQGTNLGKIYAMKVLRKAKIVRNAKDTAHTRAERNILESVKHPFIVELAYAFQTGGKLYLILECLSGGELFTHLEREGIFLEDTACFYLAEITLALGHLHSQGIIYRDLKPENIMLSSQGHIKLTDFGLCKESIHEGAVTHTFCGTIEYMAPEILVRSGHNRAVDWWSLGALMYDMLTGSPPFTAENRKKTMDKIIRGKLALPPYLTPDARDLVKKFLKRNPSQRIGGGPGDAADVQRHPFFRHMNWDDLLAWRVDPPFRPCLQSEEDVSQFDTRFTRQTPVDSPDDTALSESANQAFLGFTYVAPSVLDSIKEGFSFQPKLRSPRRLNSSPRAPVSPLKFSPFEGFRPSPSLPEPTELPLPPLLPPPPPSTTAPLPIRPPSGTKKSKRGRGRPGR

[17] = system: SNU-387; assay: Induction of apoptosis in human SNU-387 cells assessed as down regulation of cyclin B1 expression at 200 nM measured upto 5 days by Western blot analysis; format: functional, cell-based; conditions: time day <=5
[18] = system: SW-620; assay: Antiproliferative activity against human SW-620 cells; format: functional, cell-based
[19] = system: Huh-7; assay: Induction of apoptosis in human Huh-7 cells assessed as down regulation of cyclin B1 expression at 200 nM measured upto 5 days by Western blot analysis; format: functional, cell-based; conditions: time day <=5
[20] = biological target: T2, Serine/threonine-protein kinase 17B (Homo sapiens) (UniProt O94768); conditions: dose 10.0 µM
T2 sequence (whole entry): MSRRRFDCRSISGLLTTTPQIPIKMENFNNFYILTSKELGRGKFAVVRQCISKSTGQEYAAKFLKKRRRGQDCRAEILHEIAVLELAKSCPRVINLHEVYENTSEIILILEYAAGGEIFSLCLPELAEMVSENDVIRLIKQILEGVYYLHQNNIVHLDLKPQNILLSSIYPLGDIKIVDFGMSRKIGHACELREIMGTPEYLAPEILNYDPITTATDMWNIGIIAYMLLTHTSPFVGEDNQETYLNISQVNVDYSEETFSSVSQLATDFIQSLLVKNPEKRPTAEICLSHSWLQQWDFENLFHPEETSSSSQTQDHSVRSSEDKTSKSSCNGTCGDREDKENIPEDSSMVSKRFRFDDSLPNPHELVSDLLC

[21] = biological target: T3, Dual specificity protein kinase TTK (Homo sapiens) (UniProt P33981); assay: Covalent inhibition of human full length N-terminal GST-fused MPS1 (1 to 857 residues) assessed as Kinact/Ki ratio by TR-FRET assay
T3 sequence (whole entry): T1 sequence (P33981 whole entry)

[22] = biological target: Fibroblast growth factor receptor 4 (Homo sapiens, UniProt P22455); assay: Inhibition of human recombinant FGFR4 expressed in Sf9 insect cells using poly[Glu:Tyr] 4:1 as substrate in presence of [33P]-ATP by radiometric hotspot kinetic assay
Fibroblast growth factor receptor 4, sequence (P22455 whole entry): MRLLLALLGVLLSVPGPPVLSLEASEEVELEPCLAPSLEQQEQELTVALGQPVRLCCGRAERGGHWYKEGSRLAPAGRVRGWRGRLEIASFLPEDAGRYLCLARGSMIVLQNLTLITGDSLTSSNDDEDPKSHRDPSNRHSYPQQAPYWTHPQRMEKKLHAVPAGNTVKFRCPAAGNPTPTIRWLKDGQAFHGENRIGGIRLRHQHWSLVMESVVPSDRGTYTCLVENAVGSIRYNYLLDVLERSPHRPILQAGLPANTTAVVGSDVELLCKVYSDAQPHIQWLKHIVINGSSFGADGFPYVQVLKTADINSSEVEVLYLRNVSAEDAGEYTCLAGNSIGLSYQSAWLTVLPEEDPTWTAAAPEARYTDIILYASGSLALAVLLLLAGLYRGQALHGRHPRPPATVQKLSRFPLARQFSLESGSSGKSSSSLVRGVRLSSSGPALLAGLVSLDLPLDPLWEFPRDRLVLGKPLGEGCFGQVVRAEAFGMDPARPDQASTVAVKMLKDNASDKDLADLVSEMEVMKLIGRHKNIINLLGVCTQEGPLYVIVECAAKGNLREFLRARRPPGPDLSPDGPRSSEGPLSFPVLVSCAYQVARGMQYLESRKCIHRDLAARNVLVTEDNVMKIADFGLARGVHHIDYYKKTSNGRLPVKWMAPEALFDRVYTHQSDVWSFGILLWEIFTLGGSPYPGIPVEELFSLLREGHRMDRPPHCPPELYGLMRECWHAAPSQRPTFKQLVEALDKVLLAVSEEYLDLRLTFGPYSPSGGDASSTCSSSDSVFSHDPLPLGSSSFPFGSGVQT

[23] = system: Hep 3B2; assay: Induction of apoptosis in human Hep3B cells assessed as increase in cleaved caspase-3 level at 200 nM measured upto 5 days by Western blot analysis; format: functional, cell-based; conditions: time day <=5
[24] = system: SNU-387; assay: Induction of apoptosis in human SNU-387 cells assessed as increase in phospho-gammaH2A.X expression level at 200 nM measured upto 5 days by Western blot analysis; format: functional, cell-based; conditions: time day <=5
[25] = biological target: MAP kinase-activated protein kinase 3 (Homo sapiens, UniProt Q16644); assay: Inhibition of human recombinant MAPKAPK3 expressed in Sf9 insect cells using [KKLNRTLSVA] as substrate in presence of [33P]-ATP by radiometric hotspot kinetic assay
MAP kinase-activated protein kinase 3, sequence (Q16644 whole entry, the tested form may be a part): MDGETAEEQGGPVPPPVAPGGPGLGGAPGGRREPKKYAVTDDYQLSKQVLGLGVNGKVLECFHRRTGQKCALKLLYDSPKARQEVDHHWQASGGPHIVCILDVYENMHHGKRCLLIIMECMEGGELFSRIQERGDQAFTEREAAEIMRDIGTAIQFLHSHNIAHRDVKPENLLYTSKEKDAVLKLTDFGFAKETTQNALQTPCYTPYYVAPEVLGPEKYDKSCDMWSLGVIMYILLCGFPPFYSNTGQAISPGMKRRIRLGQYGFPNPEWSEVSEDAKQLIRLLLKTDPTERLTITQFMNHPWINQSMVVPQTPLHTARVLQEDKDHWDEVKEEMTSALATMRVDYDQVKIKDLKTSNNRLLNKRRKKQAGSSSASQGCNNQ

[26] = biological target: T1, Dual specificity protein kinase TTK; assay: Inhibition of recombinant human full length N-terminal GST-fused MPS1 (1 to 857 residues) using histone H3 as substrate measured immediately in presence of DTT by TR-FRET assay
[27] = system: HCT-116; assay: Induction of apoptosis in human HCT-116 cells assessed as increase in cleaved PARP level measured for 3 days by Western blot analysis; format: functional, cell-based; conditions: time 3.0 day

## C=CC(=O)Nc1cc(N2CCN(C)CC2)ccc1Nc1ncc2c(n1)-n1ccc(C(=O)Nc3c(CC)cccc3CC)c1CC2
[1]
  Activity: Active
[2]
  Activity: Active
[3]
  Activity: Active
[4]
  Activity: Active
[5]
  IC50: 0.0138 µM
[6]
  Activity: Active
[7]
  Activity: Active
[8]
  Activity: Active
[9]
  Activity: Active
[10]
  Activity: Active
[11]
  Activity: Active
[12]
  Activity: Active
[13]
  Activity: Active
[14]
  half-life at 100 µM: 84.5 h
[15]
  Activity: Active
[16]
  IC50: 1.65 µM
[17]
  Activity: Active
[18]
  Activity: Active
[19]
  Activity: Active
[20]
  ΔTm: 11.9 °C
[21]
  Ratio: 1.71 10^4/M/s
[22]
  IC50: 2.75 µM
[23]
  Activity: Active
[24]
  Activity: Active
[25]
  IC50: > 5 µM
[26]
  IC50: 0.0402 µM
[27]
  Activity: Active
